Tests used:
[1] = tested on: DSS-induced colitis; type: in vivo
Experimental: To further examine the effect of antibiotic and a BSC on ulcerative colitis, the DSS model described supra was used with the addition of arms evaluating vancomycin as the sole antibiotic. In this experiment, three-week-old male C57B1/6 mice, 15 per group (9 in the Naïve control group), were treated according to the Table 2.
Either vancomycin (Groups 5 and 6) or an antibiotic mixture (Groups 7 and 8) was administered to mice in their drinking water prior to receiving treatment to evaluate the effect on BSC efficacy. Mice were dosed by oral gavage with either PBS (Groups 2, 5, and 7) or BSC (Groups 6 and 8) three times per week starting on Day 9 and continuing through the end of the study (Day 38). Group 4 was dosed with a BSC three times per week starting on Day 0. On days 28-32, mice were exposed to 2% DSS in their drinking water (Groups 2-8) and observed until Day 38. Periodic measurements included body weight and clinical scores. On Day 38, animals were euthanized and features of the colon were evaluated including weight, length, and gross pathology. Colon samples were prepared for histopathology and scored by a pathologist blinded to treatment group and the nature of the Test Item.

[2] = tested on: TNBS-induced colitis; assay: TNBS model of colitis with and without broad-spectrum antibiotic or vancomycin pretreatment (Example 5); type: in vivo, Balb/c mice
Experimental: Additional experiments were carried out using the TNBS model (described supra) using a BSC in combination with an antibiotic. In these experiments, three-week-old male Balb/c mice, 24 per group (9 in the naïve control group), were treated according to Table 4.
Either vancomycin (Groups 5 and 6) or an antibiotic mixture (Groups 7 and 8) was administered to mice in their drinking water prior to receiving treatment to evaluate the effect on BSC efficacy (Groups 5-8). Mice were dosed by oral gavage with either PBS (Groups 2, 5, and 7) or BSC (Groups 6 and 8) three times per week starting on Day 7 and continuing through the end of the study (Day 35). Mice in group 4 received BSC three times per week by oral gavage starting on Day 0. On day 28, mice were anesthetized with isoflurane and received intracolonic 2% TNBS (Groups 2-8). Periodic measurements included body weight and clinical scores. On Day 35, animals were euthanized and gross pathology was evaluated. Colon samples were prepared for histopathology and scored by a pathologist blinded to treatment group and the nature of the Test Item.

[3] = vs Negative Control (Group 2), Day 38

## CN[C@H](CC(C)C)C(=O)N[C@H]1C(=O)N[C@@H](CC(N)=O)C(=O)N[C@H]2C(=O)N[C@H]3C(=O)N[C@H](C(=O)N[C@H](C(=O)O)c4cc(O)cc(O)c4-c4cc3ccc4O)[C@H](O)c3ccc(c(Cl)c3)Oc3cc2cc(c3O[C@@H]2O[C@H](CO)[C@@H](O)[C@H](O)[C@H]2O[C@H]2C[C@](C)(N)[C@H](O)[C@H](C)O2)Oc2ccc(cc2Cl)[C@H]1O [Vancomycin, vancomycin]
[1]; compared to naïve mice
  colon pathology (gross pathology and histopathology scores): worsening in colon pathology
[1]; vs Negative Control
  protection against DSS-induced disease / pathology: significant protection
[1]; vs Negative Control (Group 2)
  clinical score: reduced clinical scores
  colon pathology (overall): overall improvement in colon pathology
  colon weight: reduced colon weight
  maximal body weight loss / body weight loss (in words): significantly reduced
[1]; [3]
  colon length: increased colon length
  gross pathology score: improved
  histopathology score: improved
[2]; antibiotic pretreatment alone
  protection against weight loss: no effect
[2]; following TNBS induction, Positive Control = anti-IL12
  dead or euthanized / group size: 2/24
[2]; following TNBS induction, Positive Control = anti-IL12, Negative Control 33%
  Mortality: 8%
[2]; vs Negative Control Group 2, BSC p=0.14
  histopathology scores: not different
[2]; vs Negative Control Group 2, Positive Control = anti-IL12
  clinical scores: not statistically improved

Reference: patent US20180200308A1, “METHODS OF TREATING COLITIS” (priority 2015, published 2018)
